Legend:
Format in all cases: in vivo
[1] = test system: MATCH (Matricaria chamomilla); assay: Action under various soil conditions (soil types), test method 7; conditions: g of AS/ha: (A) 90, (B) 1200, (C) 140, (A)+(B)+(C) 90 + 1200 + 140
Method: (§1) In the standard design of the test, seeds of various broad-leaved weed and weed grass biotypes (origins) were sown in a 8-13 cm diameter pot filled with natural soil of a standard field soil (loamy silt; non-sterile) and covered with a covering soil layer of about 1 cm. The pots were then cultivated in a greenhouse (12-16 h of light, temperature day 20-22° C., night 15-18° C.) until the time of application. The pots were treated on a laboratory track sprayer with spray liquors comprising the compositions according to the invention, mixtures of the prior art or components used individually. Application of the active compounds or active compound combinations formulated as WG, WP, EC or otherwise was carried out at the appropriate growth stages of the plants. The application rate for the spray application was 100-600 l of water/ha. After the treatment, the plants were returned to the greenhouses.
(§2) About 3 weeks after the application, the soil action or/and foliar action was assessed visually according to a scale of 0-100% in comparison to an untreated comparative group: 0%=no noticeable effect compared to the untreated comparative group; 100%=full effect compared to the untreated comparative group.
(§3) (notes: the term “seeds” also includes vegetative propagation forms such as, for example, rhizome pieces; abbreviations used: h light=hours of illumination, g of AS/ha=gram of active substance per hectare, l/ha=liter per hectare, S=sensitive, R=resistant) • 1. Pre-emergence action against weeds: seeds of various broad-leaved weed and weed grass biotypes (origins) were sown in a 8-13 cm diameter pot filled with natural soil of a standard field soil (loamy silt; non-sterile) and covered with a covering soil layer of about 1 cm. The pots were then cultivated in a greenhouse (12-16 h of light, temperature day 20-22° C., night 15-18° C.) until the time of application. The pots were treated at the BBCH stage 00-10 of the seeds/plants on a laboratory track sprayer with spray liquors comprising the compositions according to the invention, mixtures or components used individually, as WG, WP, EC or other formulations. The application rate for the spray application was 100-600 l of water/ha. After the treatment, the plants were returned to the greenhouses and, when required, treated with fertilizer and watered. • 2. Post-emergence action against weeds: seeds of various broad-leaved weed and weed grass biotypes (origins) were sown in a 8-13 cm diameter pot filled with natural soil of a standard field soil (loamy silt; non-sterile) and covered with a covering soil layer of about 1 cm. The pots were then cultivated in a greenhouse (12-16 h of light, temperature day 20-22° C., night 15-18° C.) until the time of application. The pots were treated at various BBCH stages between 11-25 of the seeds/plants, i.e. generally between two to three weeks after the start of the cultivation, on a laboratory track sprayer with spray liquors comprising the compositions according to the invention, mixtures or components used individually, as WG, WP, EC or other formulations. The application rate for the spray application was 100-600 l of water/ha. After the treatment, the plants were returned to the greenhouses and, when required, treated with fertilizer and watered. • 3. Selective pre-emergence action: seeds of various crop species (origins) were sown in a 8-13 cm diameter pot filled with natural soil of a standard field soil (loamy silt; non-sterile) and covered with a covering soil layer of about 1 cm. The pots were then cultivated in a greenhouse (12-16 h of light, temperature day 20-22° C., night 15-18° C.) until the time of application. The pots were treated at the BBCH stage 00-10 of the seeds/plants on a laboratory track sprayer with spray liquors comprising the compositions according to the invention, mixtures or components used individually, as WG, WP, EC or other formulations. The application rate for the spray application was 100-600 l of water/ha. […]

[2] = test system: HORVS (Hordeum vulgare, summer barley); assay: Action under various soil conditions (soil types), test method 7, crop compatibility; conditions: IU/EC73 soil versus IU soil; g of AS/ha: (A) 90, (B) 1200, (C) 140, (A)+(B)+(C) 90 + 1200 + 140
Method: as §1, §2
(§4) (notes: the term “seeds” also includes vegetative propagation forms such as, for example, rhizome pieces; abbreviations used: h light=hours of illumination, g of AS/ha=gram of active substance per hectare, l/ha=liter per hectare, S=sensitive, R=resistant) • 1. Pre-emergence action against weeds: seeds of various broad-leaved weed and weed grass biotypes (origins) were sown in a 8-13 cm diameter pot filled with natural soil of a standard field soil (loamy silt; non-sterile) and covered with a covering soil layer of about 1 cm. The pots were then cultivated in a greenhouse (12-16 h of light, temperature day 20-22° C., night 15-18° C.) until the time of application. The pots were treated at the BBCH stage 00-10 of the seeds/plants on a laboratory track sprayer with spray liquors comprising the compositions according to the invention, mixtures or components used individually, as WG, WP, EC or other formulations. The application rate for the spray application was 100-600 l of water/ha. After the treatment, the plants were returned to the greenhouses and, when required, treated with fertilizer and watered. • 2. Post-emergence action against weeds: seeds of various broad-leaved weed and weed grass biotypes (origins) were sown in a 8-13 cm diameter pot filled with natural soil of a standard field soil (loamy silt; non-sterile) and covered with a covering soil layer of about 1 cm. The pots were then cultivated in a greenhouse (12-16 h of light, temperature day 20-22° C., night 15-18° C.) until the time of application. The pots were treated at various BBCH stages between 11-25 of the seeds/plants, i.e. generally between two to three weeks after the start of the cultivation, on a laboratory track sprayer with spray liquors comprising the compositions according to the invention, mixtures or components used individually, as WG, WP, EC or other formulations. The application rate for the spray application was 100-600 l of water/ha. After the treatment, the plants were returned to the greenhouses and, when required, treated with fertilizer and watered. • 3. […]

LOLPE (Lolium perenne) [3] = assay: Pre-sowing application action against weeds (7 days prior to sowing), test method 5; conditions: application 7 days prior to sowing; g of AS/ha: (A) 90, (B) 1200, (C) 140, (A)+(B)+(C) 90 + 1200 + 140
Method: as §1, §2
(notes: the term “seeds” also includes vegetative propagation forms such as, for example, rhizome pieces; abbreviations used: h light=hours of illumination, g of AS/ha=gram of active substance per hectare, l/ha=liter per hectare, S=sensitive, R=resistant) • 1. Pre-emergence action against weeds: seeds of various broad-leaved weed and weed grass biotypes (origins) were sown in a 8-13 cm diameter pot filled with natural soil of a standard field soil (loamy silt; non-sterile) and covered with a covering soil layer of about 1 cm. The pots were then cultivated in a greenhouse (12-16 h of light, temperature day 20-22° C., night 15-18° C.) until the time of application. The pots were treated at the BBCH stage 00-10 of the seeds/plants on a laboratory track sprayer with spray liquors comprising the compositions according to the invention, mixtures or components used individually, as WG, WP, EC or other formulations. The application rate for the spray application was 100-600 l of water/ha. After the treatment, the plants were returned to the greenhouses and, when required, treated with fertilizer and watered. • 2. Post-emergence action against weeds: seeds of various broad-leaved weed and weed grass biotypes (origins) were sown in a 8-13 cm diameter pot filled with natural soil of a standard field soil (loamy silt; non-sterile) and covered with a covering soil layer of about 1 cm. The pots were then cultivated in a greenhouse (12-16 h of light, temperature day 20-22° C., night 15-18° C.) until the time of application. […]

LOLPE (Lolium perenne) [4] = assay: PE action under various irrigation conditions, test method 6; conditions: PE application, g of AS/ha: (A) 90, (B) 1200, (C) 140, (A)+(B)+(C) 90 + 1200 + 140
Method: as §1, §2, §3

[5] = test system: MATCH (Matricaria chamomilla); assay: as above; conditions: PE application; irrigation from below; g of AS/ha: (A) 90, (B) 1200, (C) 140, (A)+(B)+(C) 90 + 1200 + 140
Method: as §1, §2, §3

[6] = test system: HORVS (Hordeum vulgare, summer barley); assay: Selective post-emergence action (crop compatibility), greenhouse trial, test method 4; conditions: PO application; g of AS/ha: (A) 240, (B) 1200, (C) 140, (A)+(B)+(C) 240 + 1200 + 140
Method: as §1, §2
(notes: the term “seeds” also includes vegetative propagation forms such as, for example, rhizome pieces; abbreviations used: h light=hours of illumination, g of AS/ha=gram of active substance per hectare, l/ha=liter per hectare, S=sensitive, R=resistant) • 1. Pre-emergence action against weeds: seeds of various broad-leaved weed and weed grass biotypes (origins) were sown in a 8-13 cm diameter pot filled with natural soil of a standard field soil (loamy silt; non-sterile) and covered with a covering soil layer of about 1 cm. The pots were then cultivated in a greenhouse (12-16 h of light, temperature day 20-22° C., night 15-18° C.) until the time of application. […]

AVEFA (Avena fatua) = assay: PE action at different soil pH values, test method 10; conditions: PE application, g of AS/ha: (A) 90, (B) 1200, (C) 140, (A)+(B)+(C) 90 + 1200 + 140
Method: as §1, §2

VIOAR (Viola arvensis) = assay: Post-emergence (PO) action against weeds, greenhouse trial, test method 2; conditions: PO application; g of AS/ha: (A) 240, (B) 1200, (C) 140, (A)+(B)+(C) 240 + 1200 + 140
Method: as §1, §2, §4

[7] = test system: LOLSS sensitive (Lolium species); assay: PE action on resistant weed biotypes, test method 8; conditions: PE application; g of AS/ha: (A) 90, (B) 1200, (C) 140, (A)+(B)+(C) 90 + 1200 + 140, iodosulfuron 10
Method: as §1, §2, §3

[8] = test system: ALOMY resistant (Alopecurus myosuroides); assay: as above; conditions: PE application; g of AS/ha: (A) 90, (B) 1200, (C) 140, (A)+(B)+(C) 90 + 1200 + 140, iodosulfuron 10
Method: as §1, §2, §3

[9] = test system: ALOMY sensitive (Alopecurus myosuroides); assay: as above; conditions: PE application; g of AS/ha: (A) 90, (B) 1200, (C) 140, (A)+(B)+(C) 90 + 1200 + 140, iodosulfuron 10
Method: as §1, §2, §3

## CC(C)N(C(=O)COc1nnc(C(F)(F)F)s1)c1ccc(F)cc1 [(A) flufenacet, N-(4-fluorophenyl)-N-(1-methylethyl)-2-[[5-(trifluoromethyl)-1,3,4-thiadiazol-2-yl]oxy]acetamide]
[1]; IU soil
  activity MATCH IU soil: 28%
[1]; IU/EC73 soil versus IU soil
  Difference of the soil types, MATCH: −23%
[1]; IU/EC73 soil
  activity MATCH IU/EC73 soil: 5%
[2]
  Difference of the soil types, HORVS: −10%
LOLPE (Lolium perenne) [3]
  activity LOLPE: 93%
LOLPE (Lolium perenne) [4]; irrigation from above
  activity LOLPE: 82%
LOLPE (Lolium perenne) [4]; irrigation from below
  activity LOLPE: 75%
[5]
  activity MATCH: 15%
[6]
  activity HORVS (crop plant; visual, scale 0-100%): 60%
AVEFA (Avena fatua); soil pH 7.4
  activity AVEFA pH 7.4: 80%
AVEFA (Avena fatua); soil pH 8.4
  activity AVEFA pH 8.4: 55%
VIOAR (Viola arvensis)
  activity VIOAR (visual, scale 0-100%): 50%
[7]
  activity LOLSS sensitive: 5%
[8]
  activity ALOMY resistant: 68%
[9]
  activity ALOMY sensitive: 80%
